Laboratory results: US11066396B2 (priority 2016, dated 2021)

Assays:
HDAC5 = HDAC5 (Homo sapiens (Human), UniProt Q9UQL6); conditions: read-out: HDAC5 IC50
HDAC1 = HDAC1 (Homo sapiens (Human), UniProt Q13547); conditions: read-out: HDAC1 IC50
HDAC8 = HDAC8 (Homo sapiens (Human), UniProt Q9BY41); conditions: read-out: HDAC8 IC50
Sequence of HDAC8 (Q9BY41 whole entry): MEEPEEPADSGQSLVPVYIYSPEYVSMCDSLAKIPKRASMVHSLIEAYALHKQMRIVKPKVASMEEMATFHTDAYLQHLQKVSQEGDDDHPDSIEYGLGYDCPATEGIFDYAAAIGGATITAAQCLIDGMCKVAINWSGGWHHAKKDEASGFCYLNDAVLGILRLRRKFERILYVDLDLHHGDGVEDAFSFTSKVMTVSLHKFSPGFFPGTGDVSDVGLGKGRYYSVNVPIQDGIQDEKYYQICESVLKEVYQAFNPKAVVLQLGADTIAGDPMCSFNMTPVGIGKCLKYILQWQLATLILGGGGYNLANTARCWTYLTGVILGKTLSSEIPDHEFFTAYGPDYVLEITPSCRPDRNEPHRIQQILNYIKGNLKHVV

Sequence of HDAC1 (Q13547 whole entry): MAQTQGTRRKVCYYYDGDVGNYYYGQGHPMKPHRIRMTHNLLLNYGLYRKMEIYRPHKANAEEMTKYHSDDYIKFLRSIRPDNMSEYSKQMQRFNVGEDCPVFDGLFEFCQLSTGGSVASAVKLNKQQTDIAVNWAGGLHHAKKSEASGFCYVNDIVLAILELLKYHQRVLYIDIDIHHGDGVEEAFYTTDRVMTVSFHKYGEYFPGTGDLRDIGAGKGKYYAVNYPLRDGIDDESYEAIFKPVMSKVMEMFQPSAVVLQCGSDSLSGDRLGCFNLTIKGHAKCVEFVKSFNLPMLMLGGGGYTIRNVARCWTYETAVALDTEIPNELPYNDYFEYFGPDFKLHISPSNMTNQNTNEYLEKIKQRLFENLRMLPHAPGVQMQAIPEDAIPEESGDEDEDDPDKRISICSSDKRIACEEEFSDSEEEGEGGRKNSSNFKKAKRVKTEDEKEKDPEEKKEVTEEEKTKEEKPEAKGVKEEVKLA
Sequence of HDAC5 (Q9UQL6 656-1122): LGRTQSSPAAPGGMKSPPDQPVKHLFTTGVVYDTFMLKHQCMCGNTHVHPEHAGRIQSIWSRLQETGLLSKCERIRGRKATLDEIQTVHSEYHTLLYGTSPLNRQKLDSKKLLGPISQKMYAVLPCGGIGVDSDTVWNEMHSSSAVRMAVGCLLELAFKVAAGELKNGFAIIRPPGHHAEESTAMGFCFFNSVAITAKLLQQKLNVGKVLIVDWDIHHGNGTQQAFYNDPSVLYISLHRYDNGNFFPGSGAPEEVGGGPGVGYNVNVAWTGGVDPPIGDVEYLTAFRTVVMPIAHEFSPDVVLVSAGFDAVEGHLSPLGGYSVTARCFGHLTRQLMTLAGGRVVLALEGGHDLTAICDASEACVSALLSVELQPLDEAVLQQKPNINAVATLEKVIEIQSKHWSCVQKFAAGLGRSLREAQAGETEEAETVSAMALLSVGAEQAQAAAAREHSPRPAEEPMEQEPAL

| SMILES | IC50 (HDAC5) [nM] | IC50 (HDAC1) [nM] | IC50 (HDAC8) [nM] |
| --- | --- | --- | --- |
| O=C1CCC(c2ccccc2Cl)N1c1cc(F)c(-c2noc(C(F)(F)F)n2)cc1F (racemic) [Example 120, 5-(2-chlorophenyl)-1-(2,5-difluoro-4-(5-(trifluoromethyl)-1,2,4-oxadiazol-3-yl)phenyl)pyrrolidin-2-one] | 79 | – | – |
| Cc1nccn1C(C)C(=O)N(Cc1ccc(-c2noc(C(F)(F)F)n2)cn1)c1cccc(F)c1 (racemic) [Example 390, N-(3-fluorophenyl)-2-(2-methyl-1H-imidazol-1-yl)-N-({5-[5-(trifluoromethyl)-1,2,4-oxadiazol-3-yl]pyridin-2-yl}methyl)propanamide] | – | 430 | 1700 |
| Fc1ccccc1C1COCCN1c1ccc(-c2noc(C(F)(F)F)n2)cn1 (racemic) [Example 135, 3-(2-fluorophenyl)-4-(5-(5-(trifluoromethyl)-1,2,4-oxadiazol-3-yl)pyridin-2-yl)morpholine] | – | 210 | 1300 |
| Cn1nccc1CCOc1cc(-c2noc(C(F)(F)F)n2)ccn1 [Example 387, 2-[2-(1-methyl-1H-pyrazol-5-yl)ethoxy]-4-[5-(trifluoromethyl)-1,2,4-oxadiazol-3-yl]pyridine] | – | 3100 | 880 |
| OCc1cc(NCc2ccc(-c3noc(C(F)(F)F)n3)cn2)ccc1F [Example 361, {2-fluoro-5-[({5-[5-(trifluoromethyl)-1,2,4-oxadiazol-3-yl]pyridin-2-yl}methyl)amino]phenyl}methanol] | – | 520 | 1600 |
| CCN1CCCC(C(=O)N(Cc2ccc(-c3noc(C(F)(F)F)n3)cn2)c2cccc(F)c2)C1 (racemic) [Example 57, 1-ethyl-N-(3-fluorophenyl)-N-((5-(5-(trifluoromethyl)-1,2,4-oxadiazol-3-yl)pyridin-2-yl)methyl)piperidine-3-carboxamide] | – | 240 | 2000 |
| CN(C)c1cccc(COc2cc(-c3noc(C(F)(F)F)n3)ccn2)n1 [Example 101, N,N-dimethyl-6-(((4-(5-(trifluoromethyl)-1,2,4-oxadiazol-3-yl)pyridin-2-yl)oxy)methyl)pyridin-2-amine] | – | 20000 | 17000 |
| O=C(CC1COC1)N(Cc1ccc(-c2noc(C(F)(F)F)n2)cc1)c1cccc(C(F)(F)F)c1 [Example 80, 2-(oxetan-3-yl)-N-(4-(5-(trifluoromethyl)-1,2,4-oxadiazol-3-yl)benzyl)-N-(3-(trifluoromethyl)phenyl)acetamide] | – | 1600 | 2800 |
| FC(F)(F)c1nc(-c2ccc(CNc3ccccn3)cc2)no1 [Example 382, N-{4-[5-(trifluoromethyl)-1,2,4-oxadiazol-3-yl]benzyl}pyridin-2-amine] | – | 1600 | 2100 |
| COCCN1Cc2ccccc2N(Cc2ccc(-c3noc(C(F)(F)F)n3)cn2)C1=O [Example 429, 3-(2-methoxyethyl)-1-({5-[5-(trifluoromethyl)-1,2,4-oxadiazol-3-yl]pyridin-2-yl}methyl)-3,4-dihydroquinazolin-2(1H)-one] | – | 460 | 2300 |
| O=C1CC[C@@H](c2nc3ccccc3o2)N1c1ccc(-c2noc(C(F)(F)F)n2)cc1 [Example 104, (S)-5-(benzo[d]oxazol-2-yl)-1-(4-(5-(trifluoromethyl)-1,2,4-oxadiazol-3-yl)phenyl)pyrrolidin-2-one] | – | 120 | 440 |
| NC(=O)c1ccccc1NCc1ccc(-c2noc(C(F)(F)F)n2)cn1 [Example 174, 2-(((5-(5-(Trifluoromethyl)-1,2,4-oxadiazol-3-yl)pyridin-2-yl)methyl)amino)benzamide] | – | 300 | 700 |
| FC(F)(F)c1nc(-c2ccc(CNc3c[nH]nn3)nc2)no1 [Example 431, N-({5-[5-(trifluoromethyl)-1,2,4-oxadiazol-3-yl]pyridin-2-yl}methyl)-1H-1,2,3-triazol-4-amine] | – | 4300 | 1900 |
| O=C(Cn1ccnn1)N(Cc1ccc(-c2noc(C(F)(F)F)n2)cc1)c1cccc(C(F)(F)F)c1 [Example 76, 2-(1H-1,2,3-triazol-1-yl)-N-(4-(5-(trifluoromethyl)-1,2,4-oxadiazol-3-yl)benzyl)-N-(3-(trifluoromethyl)phenyl)acetamide] | – | 1000 | 2100 |
| O=C1NCCCCC1NCc1ccc(-c2noc(C(F)(F)F)n2)cn1 (racemic) [Example 377, 3-[({5-[5-(trifluoromethyl)-1,2,4-oxadiazol-3-yl]pyridin-2-yl}methyl)amino]azepan-2-one] | – | 7300 | 3300 |
| O=C1OC[C@@H](c2ccccc2)N1c1ccc(-c2noc(C(F)(F)F)n2)c(F)c1 [Example 332, (4R)-3-{3-fluoro-4-[5-(trifluoromethyl)-1,2,4-oxadiazol-3-yl]phenyl}-4-phenyl-1,3-oxazolidin-2-one] | – | 4500 | 4500 |
| O=C1NC(=O)[C@]2(CC[C@H](NCc3ccc(-c4noc(C(F)(F)F)n4)cn3)CC2)N1 [Example 376, (5s,8s)-8-[({5-[5-(trifluoromethyl)-1,2,4-oxadiazol-3-yl]pyridin-2-yl}methyl)amino]-1,3-diazaspiro[4.5]decane-2,4-dione] | – | 3400 | 3900 |
| O=C([C@@H]1CCC(=O)N1c1cc(F)c(-c2noc(C(F)(F)F)n2)cc1F)N1CCCc2ccccc21 [Example 334, (5S)-1-{2,5-difluoro-4-[5-(trifluoromethyl)-1,2,4-oxadiazol-3-yl]phenyl}-5-(3,4-dihydroquinolin-1(2H)-ylcarbonyl)pyrrolidin-2-one] | – | 4400 | 19000 |
| CC(C)(C(=O)N(Cc1ccc(-c2noc(C(F)(F)F)n2)cn1)c1cccc(F)c1)n1cncn1 [Example 392, N-(3-fluorophenyl)-2-methyl-2-(1H-1,2,4-triazol-1-yl)-N-({5-[5-(trifluoromethyl)-1,2,4-oxadiazol-3-yl]pyridin-2-yl}methyl)propanamide] | – | 480 | 3100 |
| CC1(C)CC(c2ccccc2)N(c2ccc(-c3noc(C(F)(F)F)n3)cc2F)C1=O (racemic) [Example 312, 1-{2-fluoro-4-[5-(trifluoromethyl)-1,2,4-oxadiazol-3-yl]phenyl}-3,3-dimethyl-5-phenylpyrrolidin-2-one] | – | 1400 | 45000 |
| O=C(C1CC1c1cncnc1)N(Cc1ccc(-c2noc(C(F)(F)F)n2)cc1)c1cccc(C(F)(F)F)c1 (racemic) [Example 73, 2-(pyrimidin-5-yl)-N-(4-(5-(trifluoromethyl)-1,2,4-oxadiazol-3-yl)benzyl)-N-(3-(trifluoromethyl)phenyl)cyclopropane-1-carboxamide] | – | 940 | 2200 |
| Cn1c(OCc2ccc(-c3noc(C(F)(F)F)n3)c(F)c2)nc2cccnc21 [Example 238, 2-({3-fluoro-4-[5-(trifluoromethyl)-1,2,4-oxadiazol-3-yl]phenyl}methoxy)-3-methyl-3H-imidazo[4,5-b]pyridine] | – | 510 | 1300 |
| FC(F)(F)c1nc(-c2ccc(CNC3CCc4ncccc4C3)cc2)no1 (racemic) [Example 351, N-({4-[5-(trifluoromethyl)-1,2,4-oxadiazol-3-yl]phenyl}methyl)-5,6,7,8-tetrahydroquinolin-6-amine] | – | 520 | 680 |
